Measurements reported in ChEMBL document CHEMBL1151757, “Synthesis, radiosynthesis, and biological evaluation of fluorine-18-labeled 2beta-carbo(fluoroalkoxy)-3beta-(3'-((Z)-2-haloethenyl)phenyl)nortropanes: candidate radioligands for in vivo imaging of the serotonin transporter with positron emission tomography” (J Med Chem, 2008).

Key:
[1] = Ratio of drug uptake in pons to cerebellum in anesthetized cynomolgus monkey after 35 mins postinjection; assay type: ADME, organism-based, Macaca fascicularis; details: in vivo
[2] = Ratio of drug uptake in pons to cerebellum in anesthetized cynomolgus monkey after 195 mins postinjection; assay type: ADME, organism-based, Macaca fascicularis; details: in vivo, 3.25 h
[3] = Ratio of drug uptake in medulla to cerebellum in anesthetized cynomolgus monkey after 18.5 mins postinjection; assay type: ADME, organism-based, Macaca fascicularis; details: in vivo
[4] = Ratio of drug uptake in medulla to cerebellum in anesthetized cynomolgus monkey after 35 mins postinjection; assay type: ADME, organism-based, Macaca fascicularis; details: in vivo
[5] = Ratio of drug uptake in medulla to cerebellum in anesthetized cynomolgus monkey after 165 mins postinjection; assay type: ADME, organism-based, Macaca fascicularis; details: in vivo, 2.75 h
[6] = Drug uptake in anesthetized cynomolgus monkey brain occipital lobe after 75 mins postinjection; assay type: ADME, organism-based, Macaca fascicularis; details: in vivo, 1.25 h
[7] = Drug uptake in anesthetized cynomolgus monkey brain occipital lobe after 165 mins postinjection; assay type: ADME, organism-based, Macaca fascicularis; details: in vivo, 2.75 h
[8] = Drug uptake in anesthetized cynomolgus monkey brain occipital lobe after 235 mins postinjection; assay type: ADME, organism-based, Macaca fascicularis; details: in vivo
[9] = Drug uptake in anesthetized cynomolgus monkey brain frontal lobe after 3.5 mins postinjection; assay type: ADME, organism-based, Macaca fascicularis; details: in vivo
[10] = Drug uptake in anesthetized cynomolgus monkey brain frontal lobe after 12.5 mins postinjection; assay type: ADME, organism-based, Macaca fascicularis; details: in vivo
[11] = Drug uptake in anesthetized cynomolgus monkey brain frontal lobe after 155 mins postinjection; assay type: ADME, organism-based, Macaca fascicularis; details: in vivo
[12] = Drug uptake in anesthetized cynomolgus monkey brain frontal lobe after 165 mins postinjection; assay type: ADME, organism-based, Macaca fascicularis; details: in vivo, 2.75 h
[13] = Ratio of drug uptake in midbrain to cerebellum in anesthetized cynomolgus monkey after 225 mins postinjection; assay type: ADME, organism-based, Macaca fascicularis; details: in vivo, 3.75 h
[14] = Ratio of drug uptake in occipital lobe to cerebellum in anesthetized cynomolgus monkey after 135 mins postinjection; assay type: ADME, organism-based, Macaca fascicularis; details: in vivo, 2.25 h
Putamen [15] = assay: Drug uptake in anesthetized cynomolgus monkey brain putamen after 155 mins postinjection; assay type: ADME, organism-based, Macaca fascicularis; details: in vivo
[16] = Ratio of drug uptake in occipital lobe to cerebellum in anesthetized cynomolgus monkey after 195 mins postinjection; assay type: ADME, organism-based, Macaca fascicularis; details: in vivo, 3.25 h
[17] = Ratio of drug uptake in occipital lobe to cerebellum in anesthetized cynomolgus monkey after 205 mins postinjection; assay type: ADME, organism-based, Macaca fascicularis; details: in vivo
Midbrain [18] = assay: Drug uptake in anesthetized cynomolgus monkey brain midbrain after 165 mins postinjection; assay type: ADME, organism-based, Macaca fascicularis; details: in vivo, 2.75 h
Midbrain [19] = assay: Drug uptake in anesthetized cynomolgus monkey brain midbrain after 225 mins postinjection; assay type: ADME, organism-based, Macaca fascicularis; details: in vivo, 3.75 h
Pons [20] = assay: Drug uptake in anesthetized cynomolgus monkey brain pons after 15.5 mins postinjection; assay type: ADME, organism-based, Macaca fascicularis; details: in vivo
Thalamus [21] = assay: Drug uptake in anesthetized cynomolgus monkey brain thalamus after 195 mins postinjection; assay type: ADME, organism-based, Macaca fascicularis; details: in vivo, 3.25 h
Midbrain [22] = assay: Drug uptake in anesthetized cynomolgus monkey brain midbrain after 185 mins postinjection; assay type: ADME, organism-based, Macaca fascicularis; details: in vivo
Midbrain [23] = assay: Drug uptake in anesthetized cynomolgus monkey brain midbrain after 195 mins postinjection; assay type: ADME, organism-based, Macaca fascicularis; details: in vivo, 3.25 h
Midbrain [24] = assay: Drug uptake in anesthetized cynomolgus monkey brain midbrain after 205 mins postinjection; assay type: ADME, organism-based, Macaca fascicularis; details: in vivo
Medulla [25] = assay: Drug uptake in anesthetized cynomolgus monkey brain medulla after 195 mins postinjection; assay type: ADME, organism-based, Macaca fascicularis; details: in vivo, 3.25 h
[26] = Drug uptake in anesthetized cynomolgus monkey brain cerebellum after 195 mins postinjection; assay type: ADME, organism-based, Macaca fascicularis; details: in vivo, 3.25 h
Putamen [27] = assay: Drug uptake in anesthetized cynomolgus monkey brain putamen after 185 mins postinjection; assay type: ADME, organism-based, Macaca fascicularis; details: in vivo
Putamen [28] = assay: Drug uptake in anesthetized cynomolgus monkey brain putamen after 205 mins postinjection; assay type: ADME, organism-based, Macaca fascicularis; details: in vivo
[29] = Ratio of drug uptake in caudate to cerebellum in anesthetized cynomolgus monkey after 12.5 mins postinjection; assay type: ADME, organism-based, Macaca fascicularis; details: in vivo
Pons [30] = assay: Drug uptake in anesthetized cynomolgus monkey brain pons after 215 mins postinjection; assay type: ADME, organism-based, Macaca fascicularis; details: in vivo
Pons [31] = assay: Drug uptake in anesthetized cynomolgus monkey brain pons after 225 mins postinjection; assay type: ADME, organism-based, Macaca fascicularis; details: in vivo, 3.75 h
Medulla [32] = assay: Drug uptake in anesthetized cynomolgus monkey brain medulla after 3.5 mins postinjection; assay type: ADME, organism-based, Macaca fascicularis; details: in vivo
Medulla [33] = assay: Drug uptake in anesthetized cynomolgus monkey brain medulla after 22.5 mins postinjection; assay type: ADME, organism-based, Macaca fascicularis; details: in vivo, 0.375 h
Medulla [34] = assay: Drug uptake in anesthetized cynomolgus monkey brain medulla after 27.5 mins postinjection; assay type: ADME, organism-based, Macaca fascicularis; details: in vivo
Medulla [35] = assay: Drug uptake in anesthetized cynomolgus monkey brain medulla after 135 mins postinjection; assay type: ADME, organism-based, Macaca fascicularis; details: in vivo, 2.25 h
Medulla [36] = assay: Drug uptake in anesthetized cynomolgus monkey brain medulla after 155 mins postinjection; assay type: ADME, organism-based, Macaca fascicularis; details: in vivo
[37] = Drug uptake in anesthetized cynomolgus monkey brain cerebellum after 6.5 mins postinjection; assay type: ADME, organism-based, Macaca fascicularis; details: in vivo
[38] = Drug uptake in anesthetized cynomolgus monkey brain cerebellum after 12.5 mins postinjection; assay type: ADME, organism-based, Macaca fascicularis; details: in vivo
[39] = Drug uptake in anesthetized cynomolgus monkey brain cerebellum after 22.5 mins postinjection; assay type: ADME, organism-based, Macaca fascicularis; details: in vivo, 0.375 h
Medulla [40] = assay: Drug uptake in anesthetized cynomolgus monkey brain medulla after 115 mins postinjection; assay type: ADME, organism-based, Macaca fascicularis; details: in vivo
[41] = Drug uptake in anesthetized cynomolgus monkey brain cerebellum after 235 mins postinjection; assay type: ADME, organism-based, Macaca fascicularis; details: in vivo
[42] = Ratio of drug uptake in putamen to cerebellum in anesthetized cynomolgus monkey after 65 mins postinjection; assay type: ADME, organism-based, Macaca fascicularis; details: in vivo
Caudate [43] = assay: Drug uptake in anesthetized cynomolgus monkey brain caudate after 0.5 mins postinjection; assay type: ADME, organism-based, Macaca fascicularis, Caudate nucleus; details: in vivo
Caudate [44] = assay: Drug uptake in anesthetized cynomolgus monkey brain caudate after 1.5 mins postinjection; assay type: ADME, organism-based, Macaca fascicularis, Caudate nucleus; details: in vivo, 0.025 h
Caudate [45] = assay: Drug uptake in anesthetized cynomolgus monkey brain caudate after 9.5 mins postinjection; assay type: ADME, organism-based, Macaca fascicularis, Caudate nucleus; details: in vivo
Caudate [46] = assay: Drug uptake in anesthetized cynomolgus monkey brain caudate after 15.5 mins postinjection; assay type: ADME, organism-based, Macaca fascicularis, Caudate nucleus; details: in vivo
Caudate [47] = assay: Drug uptake in anesthetized cynomolgus monkey brain caudate after 135 mins postinjection; assay type: ADME, organism-based, Macaca fascicularis, Caudate nucleus; details: in vivo, 2.25 h
Caudate [48] = assay: Drug uptake in anesthetized cynomolgus monkey brain caudate after 175 mins postinjection; assay type: ADME, organism-based, Macaca fascicularis, Caudate nucleus; details: in vivo
Caudate [49] = assay: Drug uptake in anesthetized cynomolgus monkey brain caudate after 225 mins postinjection; assay type: ADME, organism-based, Macaca fascicularis, Caudate nucleus; details: in vivo, 3.75 h
[50] = Ratio of drug uptake in occipital lobe to cerebellum in anesthetized cynomolgus monkey after 0.5 mins postinjection; assay type: ADME, organism-based, Macaca fascicularis; details: in vivo
[51] = Ratio of drug uptake in occipital lobe to cerebellum in anesthetized cynomolgus monkey after 18.5 mins postinjection; assay type: ADME, organism-based, Macaca fascicularis; details: in vivo
Thalamus [52] = assay: Drug uptake in anesthetized cynomolgus monkey brain thalamus after 15.5 mins postinjection; assay type: ADME, organism-based, Macaca fascicularis; parameters: unit not given here; details: in vivo
Thalamus [53] = assay: Drug uptake in anesthetized cynomolgus monkey brain thalamus after 18.5 mins postinjection; assay type: ADME, organism-based, Macaca fascicularis; parameters: unit not given here; details: in vivo
Thalamus [54] = assay: Drug uptake in anesthetized cynomolgus monkey brain thalamus after 27.5 mins postinjection; assay type: ADME, organism-based, Macaca fascicularis; parameters: unit not given here; details: in vivo
Putamen [55] = assay: Drug uptake in anesthetized cynomolgus monkey brain putamen after 15.5 mins postinjection; assay type: ADME, organism-based, Macaca fascicularis; parameters: unit not given here; details: in vivo
Putamen [56] = assay: Drug uptake in anesthetized cynomolgus monkey brain putamen after 45 mins postinjection; assay type: ADME, organism-based, Macaca fascicularis; parameters: unit not given here; details: in vivo, 0.75 h
Thalamus [57] = assay: Drug uptake in anesthetized cynomolgus monkey brain thalamus after 95 mins postinjection; assay type: ADME, organism-based, Macaca fascicularis; parameters: unit not given here; details: in vivo
Thalamus [58] = assay: Drug uptake in anesthetized cynomolgus monkey brain thalamus after 105 mins postinjection; assay type: ADME, organism-based, Macaca fascicularis; parameters: unit not given here; details: in vivo, 1.75 h
Thalamus [59] = assay: Drug uptake in anesthetized cynomolgus monkey brain thalamus after 165 mins postinjection; assay type: ADME, organism-based, Macaca fascicularis; parameters: unit not given here; details: in vivo, 2.75 h
Thalamus [60] = assay: Drug uptake in anesthetized cynomolgus monkey brain thalamus after 225 mins postinjection; assay type: ADME, organism-based, Macaca fascicularis; parameters: unit not given here; details: in vivo, 3.75 h
Midbrain [61] = assay: Drug uptake in anesthetized cynomolgus monkey brain midbrain after 0.5 mins postinjection; assay type: ADME, organism-based, Macaca fascicularis; parameters: unit not given here; details: in vivo
Midbrain [62] = assay: Drug uptake in anesthetized cynomolgus monkey brain midbrain after 4.5 mins postinjection; assay type: ADME, organism-based, Macaca fascicularis; parameters: unit not given here; details: in vivo, 0.075 h
Midbrain [63] = assay: Drug uptake in anesthetized cynomolgus monkey brain midbrain after 6.5 mins postinjection; assay type: ADME, organism-based, Macaca fascicularis; parameters: unit not given here; details: in vivo
Midbrain [64] = assay: Drug uptake in anesthetized cynomolgus monkey brain midbrain after 115 mins postinjection; assay type: ADME, organism-based, Macaca fascicularis; parameters: unit not given here; details: in vivo
[65] = Ratio of drug uptake in midbrain to cerebellum in anesthetized cynomolgus monkey after 9.5 mins postinjection; assay type: ADME, organism-based, Macaca fascicularis; details: in vivo
[66] = Ratio of drug uptake in midbrain to cerebellum in anesthetized cynomolgus monkey after 27.5 mins postinjection; assay type: ADME, organism-based, Macaca fascicularis; details: in vivo
[67] = Ratio of drug uptake in midbrain to cerebellum in anesthetized cynomolgus monkey after 125 mins postinjection; assay type: ADME, organism-based, Macaca fascicularis; details: in vivo

O=C(OCC[18F])C1C2CCC(CC1c1cccc(/C=C\Br)c1)N2 (configuration not stated) showed a Ratio [1] of 1.1, a Ratio [2] of 2 and a Ratio [3] of 1.2. For the same compound, the Ratio [4] was 1.3, the Ratio [5] was 1.8 and the Drug uptake [6] was 3.49. The Drug uptake [7] was 2.5, the Drug uptake [8] was 1.94 and the Drug uptake [9] was 0.62. For the same compound, the Drug uptake [10] was 2.27, the Drug uptake [11] was 2.46 and the Drug uptake [12] was 2.38. For the same compound, the Ratio [13] was 2.3, the Ratio [14] was 1.1 and the Drug uptake (Putamen [15]) was 4.01. For the same compound, the Ratio [16] was 1.1, the Ratio [17] was 1.3 and the Drug uptake (Midbrain [18]) was 4.28. For the same compound, the Drug uptake (Midbrain [19]) was 3.74, the Drug uptake (Pons [20]) was 3.73 and the Drug uptake (Thalamus [21]) was 3.18. For the same compound, the Drug uptake (Midbrain [22]) was 4.14, the Drug uptake (Midbrain [23]) was 3.91 and the Drug uptake (Midbrain [24]) was 4. The Drug uptake (Medulla [25]) was 3.34, the Drug uptake [26] was 1.79 and the Drug uptake (Putamen [27]) was 3.68. It also gave a Drug uptake (Putamen [28]) of 3.42, a Ratio [29] of 0.8 and a Drug uptake (Pons [30]) of 3.22. For the same compound, the Drug uptake (Pons [31]) was 2.77, the Drug uptake (Medulla [32]) was 1.26 and the Drug uptake (Medulla [33]) was 4.7. It also gave a Drug uptake (Medulla [34]) of 4.57, a Drug uptake (Medulla [35]) of 4.21 and a Drug uptake (Medulla [36]) of 3.83. It also gave a Drug uptake [37] of 2.75, a Drug uptake [38] of 3.41 and a Drug uptake [39] of 3.81. It also gave a Drug uptake (Medulla [40]) of 4.28, a Drug uptake [41] of 1.62 and a Ratio [42] of 1.5. The Drug uptake (Caudate [43]) was 0, the Drug uptake (Caudate [44]) was 0.04 and the Drug uptake (Caudate [45]) was 2.36. The Drug uptake (Caudate [46]) was 2.89, the Drug uptake (Caudate [47]) was 3.74 and the Drug uptake (Caudate [48]) was 3.29. For the same compound, the Drug uptake (Caudate [49]) was 2.93, the Ratio [50] was 1.6 and the Ratio [51] was 0.8. The Drug uptake (Thalamus [52]) was 3.29, the Drug uptake (Thalamus [53]) was 3.32 and the Drug uptake (Thalamus [54]) was 3.94. The Drug uptake (Putamen [55]) was 4.05, the Drug uptake (Putamen [56]) was 4.94 and the Drug uptake (Thalamus [57]) was 4.31. The Drug uptake (Thalamus [58]) was 4.23, the Drug uptake (Thalamus [59]) was 3.64 and the Drug uptake (Thalamus [60]) was 2.95. It also gave a Drug uptake (Midbrain [61]) of 0.01, a Drug uptake (Midbrain [62]) of 1.76 and a Drug uptake (Midbrain [63]) of 2.99. The Drug uptake (Midbrain [64]) was 4.78, the Ratio [65] was 1.1 and the Ratio [66] was 1.2. The Ratio [67] was 1.8.
